Measurements reported in patent publication US10752584B2 (EMORY UNIVERSITY, priority 2016, dated 2020).
pEC50: −log10 of the molar value.

Tests used:
Format in all cases: cell-based
[1] = system: mitochondrial DNA (COXII gene) in HepG2 cells; assay: Mitochondrial toxicity assay in HepG2 cells: mitochondrial DNA; settings: for MtDNA (% of control): human, 14 day
[2] = Cellular toxicity assay in Vero cells; settings: African green monkey, read-out: Cytotoxicity
Method in brief: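 IC50 for cytotoxicity is derived with the median effective method from concentration-response data. Controls: cycloheximide, solvent-treated untreated cells.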

HBV e antigen (HBeAg) = assay: HBeAg ELISA in HepAD38 cells (cccDNA-dependent marker); settings: Hepatitis B virus, HePAD38, 336 h
Protocol: Production of secreted HBeAg is predominantly cccDNA-dependent in HepAD38 cells and therefore can serve as a surrogate marker for cccDNA (Ladner, S. K., Otto, M. J., Barker, C. S., Zaifert, K., Wang, G. H., Guo, J. T., Seeger, C., King, R. W. Antimicrob Agents Chemother 1997, 41, 1715-1720; Zhou T, Guo H, Guo J T, Cuconati A, Mehta A, Block T M. Antiviral Res. 2006; 72 (2): 116-24.). The effect on the levels of cccDNA formation was assessed using a cell-based assay that measures HBV e antigen (HBeAg) as a cccDNA-dependent marker in the HepAD38 system. HepAD38 cells were seeded at 50,000 cells/well in collagen-coated 96-well plates with DMEM/F12 medium (Life Technologies) supplemented with 10% heat-inactivated fetal bovine serum. Cells were treated with 0.3 μg/ml tetracycline as needed. Test compounds and controls were added to cells to a final concentration of 10 μM or in a dose response manner ranging from 0.001 to 10 μM. Medium and test compounds were replenished every 5 days in culture. Supernatants were harvested at day-14, clarified by centrifugation at 5000 rpm for 5 min, and stored at −70° C. until use. ELISA—Culture medium was diluted 1:15 in DMEM/F12 and the levels of HBeAg secreted in the culture medium were measured by using HBeAg ELISA kit (BioChain Institute Inc. Hayward, Calif.) according to the manufacturer's protocol. The concentration of compound that reduced levels of secreted HBeAg by 50% (EC50) was determined by linear regression.

[3] = Homo sapiens, HepG2, 336 h, read-out: % inhibition MtDNA

C#CCNC(=O)C(=O)c1c(C)c(C(=O)Nc2ccc(F)c(F)c2)n(C)c1C [Compound 7a, 4-[(Propargylamino)(oxo)acetyl]-N-(3,4-difluorophenyl)-1,3,5-trimethyl-1H-pyrrole-2-carboxamide]
inhibition at 25 µM [1, 3]: < 1%
inhibition at 50 µM [1, 3]: 17.7%
MtDNA (% of control) ([1]; 25 μM): 91.8 (80.2-105) % of control
MtDNA (% of control) ([1]; 50 μM): 94.6 (73.8-121) % of control
CC50 [2]: > 90000 nM
pEC50 (HBV e antigen (HBeAg); read-out: Anti-HBeAg activity EC50): 8.10
EC90 (HBV e antigen (HBeAg); read-out: Anti-HBeAg activity EC90): 580 nM
